Tested on: citric acid-induced cough responses
Assay: Citric acid-induced cough in conscious guinea-pigs (aerosol pre-treatment)
Format: in vivo, guinea-pig
Conditions: aerosol 10.0 mg/ml immediately before exposure to citric acid (1M); compared with control (procaine) pre-treated guinea pigs; 15 minute observation period
Description: The following method is one of the general methods available to determine the antitussive activity of the compounds of the present invention.
Male albino Dunkin-Hartley strain guinea-pigs (weight 300-400 g) can be obtained from various commercial suppliers.
The method is a modification of that described by Adcock J. J., Schneider C. and Smith T. W., “Effects of Morphine and a Novel Opioid Pentapeptide BW443C, on Cough, Nociception and Ventilation in the Unanaesthetized Guinea-pig”, Br. J. Pharmacol., 93, 93-100 (1988). […]
Cylinder air is introduced into the exposure chamber at a flow rate of 1 liter/min maintained by a needle valve and monitored by a rotameter. […]
Cough responses are induced by exposure to an aerosol of citric acid (1M) for 10 minutes. Animals are continuously monitored by trained observer, and the number of coughs are counted during a 15 minute period from commencement of the citric acid aerosol administration. […]
The three types of response are differentiated primarily by sound and visual observation. […] Each cough is marked on the Grass polygraph paper trace, and from these record numbers, frequency and time of onset of coughs are determined. […]
Quantities of drugs are weighed out and dissolved in a vehicle. […] The sequence of pre-treatment administration is determined according to a 4×4 Latin Square design. […]

SMILES: CC[N+](C)(CC)CCOC(=O)c1ccc(N)cc1.[I-] [N-methyl-procaine iodide, 2-[(4-Aminobenzoyl)oxy]-N,N-diethyl-N-methylethanaminium iodide]
- inhibition of cough responses: > 50%
